Values of other authors in patent US8680143B2, “Orally active curcuminoid compounds” (Laila Pharmaceuticals Pvt. Ltd., priority 2008, dated 2014).

oral bis-O-demethylcurcumin that enters the plasma: less than 1%
SMILES: O=C(C=Cc1ccc(O)c(O)c1)CC(=O)C=Cc1ccc(O)c(O)c1 [Bis-O-demethylcurcumin, 1,7-bis(3,4-dihydroxyphenyl)-1,6-heptadiene-3,5-dione]
